{"source": "patent US8022219B2", "about": "“2-hydroxymethy1-3,4,5-trihydroxy-1-(4-pentyloxybenzyl) piperidine as glucosylceramide synthase (Gcs) inhibitor” (Actelion Pharmaceuticals Ltd., priority 2003, dated 2011)", "key": {"[1]": {"molecular_target": "T1, human recombinant GCS expressed in insect cells (Homo sapiens, UniProt Q16739)", "T1 construct": "made in house; host or cells: insect cells", "T1 sequence (Q16739 1-394)": "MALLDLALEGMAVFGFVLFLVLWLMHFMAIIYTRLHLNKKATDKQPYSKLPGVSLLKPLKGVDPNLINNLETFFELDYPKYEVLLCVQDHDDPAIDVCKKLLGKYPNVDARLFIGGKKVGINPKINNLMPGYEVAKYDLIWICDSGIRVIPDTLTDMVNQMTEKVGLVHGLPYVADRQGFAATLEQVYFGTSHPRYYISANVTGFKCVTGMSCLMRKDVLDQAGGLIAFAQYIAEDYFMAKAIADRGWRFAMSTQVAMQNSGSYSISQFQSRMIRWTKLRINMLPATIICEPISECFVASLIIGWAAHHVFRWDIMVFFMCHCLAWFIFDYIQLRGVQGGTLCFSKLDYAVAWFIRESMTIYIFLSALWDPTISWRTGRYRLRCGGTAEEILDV", "experiment": "Inhibition of GCS", "type": "biochemical", "settings": "read-out: Inhibition of glucosylceramide synthase (IC50 μM)", "experimental": "The assay for inhibition of GCS was performed essentially as described in Platt et al., J. Biol. Chem., 1994, 269, 27108, the enzyme source being human recombinant GCS expressed in insect cells."}, "[2]": {"molecular_target": "T2, non-lysosomal-β-glucocerebrosidase (Homo sapiens, UniProt Q9HCG7)", "T2 construct": "whole cell extracts of MCF7 (a human breast carcinoma cell line) was used as the source of the enzyme; endogenous in cells; host or cells: MCF7 whole cell extract", "T2 sequence (Q9HCG7 1-927)": "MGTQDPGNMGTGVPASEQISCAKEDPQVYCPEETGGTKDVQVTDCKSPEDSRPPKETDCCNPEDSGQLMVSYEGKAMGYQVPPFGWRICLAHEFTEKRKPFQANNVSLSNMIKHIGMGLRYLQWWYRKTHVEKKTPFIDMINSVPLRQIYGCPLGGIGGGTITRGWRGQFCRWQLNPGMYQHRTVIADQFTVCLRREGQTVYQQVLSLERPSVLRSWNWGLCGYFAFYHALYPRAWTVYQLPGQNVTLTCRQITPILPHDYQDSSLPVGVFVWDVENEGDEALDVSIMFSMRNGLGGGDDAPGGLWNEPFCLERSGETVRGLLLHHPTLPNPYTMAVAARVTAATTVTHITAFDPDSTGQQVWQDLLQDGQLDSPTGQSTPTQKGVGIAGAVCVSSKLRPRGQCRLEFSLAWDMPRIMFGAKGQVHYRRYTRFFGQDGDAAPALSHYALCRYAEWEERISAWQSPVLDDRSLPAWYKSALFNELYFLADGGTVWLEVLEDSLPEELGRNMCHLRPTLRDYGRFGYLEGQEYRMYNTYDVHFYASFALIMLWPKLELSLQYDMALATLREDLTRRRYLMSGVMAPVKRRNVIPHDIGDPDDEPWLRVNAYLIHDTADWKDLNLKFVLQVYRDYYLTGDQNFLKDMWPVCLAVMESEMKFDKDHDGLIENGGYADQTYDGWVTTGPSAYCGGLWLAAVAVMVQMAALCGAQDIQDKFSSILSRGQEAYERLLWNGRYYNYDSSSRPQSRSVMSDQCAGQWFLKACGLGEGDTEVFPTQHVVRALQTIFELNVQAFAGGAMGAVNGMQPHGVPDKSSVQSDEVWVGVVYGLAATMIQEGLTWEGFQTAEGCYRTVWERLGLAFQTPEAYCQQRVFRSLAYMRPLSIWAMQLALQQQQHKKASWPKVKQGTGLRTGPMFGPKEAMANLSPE", "experiment": "Inhibition of non-lysosomal-β-glucocerebrosidase", "type": "biochemical", "settings": "whole cell extracts of MCF7 as enzyme source; 5 mM 4-MU β-glucoside; 0.2M citrate/phosphate pH 5.8", "experimental": "Inhibition of Non-Lysosomal-β-Glucocerebrosidase\nThe assay for inhibition of non-lysosomal-β-glucocerebrosidase was essentially carried out as described in Overkleeft, H. S. et al., J. Biol. Chem., 1998, 273, 26522-26527, with the following differences: whole cell extracts of MCF7 (a human breast carcinoma cell line) was used as the source of the enzyme instead of splenic membrane suspensions; 5 mM instead of 3 mM, 4-MU β-glucoside was used as substrate and 0.2M citrate/phosphate (pH 5.8) was used instead of McIlvaine buffer."}}, "data": [{"smiles": "CCCCCOc1ccc(CN2C[C@H](O)[C@@H](O)[C@@H](O)[C@@H]2CO)cc1", "note": "[Example 1, 3,4,5-Piperidinetriol, 2-(hydroxymethyl)-1-[(4-(pentyloxy)phenyl)methyl]-, (2S,3S,4R,5S)]", "values": [{"measurement": "IC50", "setting": "[1]", "value": 4.8, "unit": "µM"}, {"measurement": "IC50", "setting": "[2]", "value": 2.5, "unit": "µM"}]}]}
